≈ marks a conversion by molar mass, not a printed value.
Experiments:
[1] = tested on: Staphylococcus aureus strain SAU1018; experiment: mouse peritonitis infection model (survival, ED50); type: in vivo; conditions: parent drug control in same test, in 20% aqueous beta-hydroxypropylcyclodextrin (HPCD) formulation, read-out: ED50 (effective dose for survival of 50% of animals)
in vivo = conditions: rat, iv, 10 mg/kg
physchem = conditions: water or conventional aqueous solutions, thermodynamic from solid
[2] = pH range of about 3-9

Structure (SMILES): O=C1C=CN(c2c(F)cc(N3C[C@H](CNc4ccon4)OC3=O)c(F)c2F)CC1 [MRX-I]
- ED50 [1]: 10 mg/kg
- AUC (in vivo): ~25400 ng·h/mL
- solubility (physchem): ~250 µg/mL (≈ 612 µM)
- pH dependence of solubility in water [2]: virtually pH-independent

Source: patent US9382276B2, “Water-soluble O-carbonyl phosphoramidate prodrugs for therapeutic administration” (MicuRx Pharmaceuticals, Inc., priority 2014, dated 2016)
